Tests used:
[1] = test system: dizziness, including vertigo and Menière's disorder; experiment: Animal models for dizziness, including vertigo and Menière's disorder; type: in vivo; details: animal models not specified; no data given
Source text: Animal models for dizziness, vertigo and Menière's disorder include, but are not limited
Electronystagmography in rats (see Fischer, A. J. et al., “Electronystagmography in the laboratory rat”, Acta Otolaryngol., 88, 412-419,1979).
Gentamycin induced nystagmus in guinea pigs (see Okuda, T. et al., “Inner ear changes with intracochlear gentamicin administration in Guinea pigs”, Laryngoscope, 114, 694-697, 2004).
Unilateral peripheral vestibular deafferentation in guinea pigs (see Dutia, M. B. et al., “The opioid receptor antagonist, naloxone, enhances ocular motor compensation in guinea pig following peripheral vestibular deafferentation”, Exp. Neurol., 141,141-144,1996), or rats (see Guilding, C. et al., “11-Beta-hydroxysteroid dehydrogenase type 1 activity in medial vestibular nucleus and cerebellum after unilateral vestibular deafferentation in the rat”, Stress, 7(2),127-130, 2004).
Unilateral labyrinthectomy in rats (see Johnston, A. R. et al., “Differential regulation of GABA(A) and GABA(B) receptors during vestibular compensation”, Neuroreport.;12(3), 597-600, 2001; and Inoue, S. et al., “Glutamate release in the rat medial vestibular nucleus following unilateral labyrinthectomy using in vivo microdialysis”, Brain Res., 991(1-2), 78-83, 2003). […]

AMPA receptors = details: qualitative statement; affinity for AMPA receptors said to have been published; cited from earlier work

Cc1nc2n(c1C)N=C(c1ccccc1)c1cc3c(cc1C2)OCO3 [8,9-dimethyl-5-phenyl-11H-1,3-dioxolo[4,5-h]imidazo[1,2-c][2,3]benzo-diazepine]
activity in animal models for dizziness, including vertigo and Menière's disorder [1]: active
AMPA receptor antagonistic activity (AMPA receptors): AMPA receptor antagonistic activity
